Measurements taken from ChEMBL document CHEMBL4330131, “The identification of novel small-molecule inhibitors targeting WDR5-MLL1 interaction through fluorescence polarization based high-throughput screening” (Bioorg Med Chem Lett, 2019).
Values belong to the compound of their own block, whether it stands above or below them.

Columns and labels:
[1] = molecular target: T1, WD repeat-containing protein 5 (Homo sapiens, UniProt P61964); experiment: Displacement of fluorescence-labelled Ac-ARA peptide from WDR5 (unknown origin) by fluorescence polarization assay
[2] = molecular target: T1, WD repeat-containing protein 5; experiment: Displacement of 5-FAM labelled tracer from WDR5 (unknown origin) by fluorescence polarization assay
[3] = molecular target: T1, WD repeat-containing protein 5; experiment: Displacement of Ac-ARTEVHLRKS-(Ahx)-(Ahx)-K(5-FAM)-NH2 from recombinant full-length human N-terminal His6-tagged WDR5 (1 to 334 residues) expressed in Escherichia coli BL21 (DE3) after 2 hrs by fluorescence polarization assay
[4] = molecular target: Histone-lysine N-methyltransferase 2D (Homo sapiens, UniProt O14686); experiment: Inhibition of MLL2 (unknown origin) using SAM as substrate preincubated for 15 mins followed by substrate addition and measured after 1 hr by Alphalisa assay
[5] = molecular target: Protein arginine N-methyltransferase 1 (Homo sapiens, UniProt Q99873); experiment: Inhibition of PRMT1 (unknown origin) using SAM as substrate preincubated for 15 mins followed by substrate addition and measured after 1 hr by Alphalisa assay
Protein arginine N-methyltransferase 1, sequence (Q99873 whole entry): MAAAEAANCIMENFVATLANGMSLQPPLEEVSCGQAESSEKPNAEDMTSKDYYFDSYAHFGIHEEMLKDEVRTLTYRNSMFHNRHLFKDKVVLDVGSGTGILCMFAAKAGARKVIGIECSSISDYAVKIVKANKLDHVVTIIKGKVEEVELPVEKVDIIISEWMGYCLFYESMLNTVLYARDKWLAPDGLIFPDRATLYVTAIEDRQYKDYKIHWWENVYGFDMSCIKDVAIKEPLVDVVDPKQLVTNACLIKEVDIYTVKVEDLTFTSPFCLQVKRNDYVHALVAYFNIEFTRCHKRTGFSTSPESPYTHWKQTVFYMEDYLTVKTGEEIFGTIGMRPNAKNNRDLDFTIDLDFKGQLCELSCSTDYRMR

[6] = molecular target: Histone-lysine N-methyltransferase SETD1B (Homo sapiens, UniProt Q9UPS6); experiment: Inhibition of SETD1B (unknown origin) using SAM as substrate preincubated for 15 mins followed by substrate addition and measured after 1 hr by Alphalisa assay
Histone-lysine N-methyltransferase SETD1B, sequence (Q9UPS6 whole entry): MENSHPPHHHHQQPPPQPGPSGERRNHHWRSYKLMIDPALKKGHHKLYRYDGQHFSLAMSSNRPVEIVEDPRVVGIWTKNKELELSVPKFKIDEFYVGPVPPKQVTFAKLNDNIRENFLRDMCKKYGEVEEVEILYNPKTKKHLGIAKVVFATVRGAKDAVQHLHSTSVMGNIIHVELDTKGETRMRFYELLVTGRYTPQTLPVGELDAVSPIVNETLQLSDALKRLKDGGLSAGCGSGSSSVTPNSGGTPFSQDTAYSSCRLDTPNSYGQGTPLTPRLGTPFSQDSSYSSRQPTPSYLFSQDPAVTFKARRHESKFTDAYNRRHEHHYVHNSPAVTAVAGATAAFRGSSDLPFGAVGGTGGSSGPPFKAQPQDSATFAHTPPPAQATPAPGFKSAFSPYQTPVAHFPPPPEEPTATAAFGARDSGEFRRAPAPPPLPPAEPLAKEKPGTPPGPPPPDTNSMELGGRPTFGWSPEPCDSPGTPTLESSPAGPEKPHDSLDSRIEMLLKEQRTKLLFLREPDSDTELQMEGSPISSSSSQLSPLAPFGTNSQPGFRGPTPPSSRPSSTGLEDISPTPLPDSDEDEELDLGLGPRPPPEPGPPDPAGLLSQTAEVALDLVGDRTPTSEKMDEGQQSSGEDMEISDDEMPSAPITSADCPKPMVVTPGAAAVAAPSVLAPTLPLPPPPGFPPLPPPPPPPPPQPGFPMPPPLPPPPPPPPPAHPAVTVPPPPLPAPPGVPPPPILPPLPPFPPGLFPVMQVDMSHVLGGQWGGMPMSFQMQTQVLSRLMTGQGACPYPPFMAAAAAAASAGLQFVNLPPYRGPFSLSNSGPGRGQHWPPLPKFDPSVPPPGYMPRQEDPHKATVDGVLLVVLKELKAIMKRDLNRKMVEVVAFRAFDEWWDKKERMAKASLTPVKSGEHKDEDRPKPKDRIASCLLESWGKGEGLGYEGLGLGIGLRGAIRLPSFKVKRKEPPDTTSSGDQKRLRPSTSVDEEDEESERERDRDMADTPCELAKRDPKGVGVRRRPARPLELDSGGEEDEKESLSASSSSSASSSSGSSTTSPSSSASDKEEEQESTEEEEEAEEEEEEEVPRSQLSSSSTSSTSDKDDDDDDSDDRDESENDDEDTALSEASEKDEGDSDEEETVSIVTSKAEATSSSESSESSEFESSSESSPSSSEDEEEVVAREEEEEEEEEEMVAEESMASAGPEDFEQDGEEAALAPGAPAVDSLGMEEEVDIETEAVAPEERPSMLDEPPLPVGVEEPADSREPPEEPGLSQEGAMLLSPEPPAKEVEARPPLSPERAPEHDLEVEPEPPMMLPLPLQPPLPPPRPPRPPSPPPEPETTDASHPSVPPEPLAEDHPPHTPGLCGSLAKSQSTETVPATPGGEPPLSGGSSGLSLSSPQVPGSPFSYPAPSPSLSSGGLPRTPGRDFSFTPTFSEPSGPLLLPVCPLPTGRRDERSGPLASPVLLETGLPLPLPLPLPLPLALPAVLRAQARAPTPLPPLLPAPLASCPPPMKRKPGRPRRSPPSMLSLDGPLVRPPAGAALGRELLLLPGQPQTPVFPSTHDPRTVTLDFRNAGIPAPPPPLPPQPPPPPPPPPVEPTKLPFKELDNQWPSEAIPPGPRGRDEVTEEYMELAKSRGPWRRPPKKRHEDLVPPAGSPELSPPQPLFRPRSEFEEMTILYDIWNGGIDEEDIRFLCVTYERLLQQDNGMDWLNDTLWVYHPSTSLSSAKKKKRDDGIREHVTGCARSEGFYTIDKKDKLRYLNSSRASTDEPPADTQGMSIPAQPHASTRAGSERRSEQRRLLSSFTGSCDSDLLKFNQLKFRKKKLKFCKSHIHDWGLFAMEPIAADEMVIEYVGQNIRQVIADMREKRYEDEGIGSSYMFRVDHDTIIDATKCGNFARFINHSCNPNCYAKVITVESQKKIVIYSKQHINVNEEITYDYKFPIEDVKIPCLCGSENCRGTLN

[7] = molecular target: T2, Histone-lysine N-methyltransferase EHMT2 (Homo sapiens, UniProt Q96KQ7); experiment: Inhibition of G9a (unknown origin) using SAM as substrate preincubated for 15 mins followed by substrate addition and measured after 1 hr by Alphalisa assay
T2 sequence (Q96KQ7 whole entry): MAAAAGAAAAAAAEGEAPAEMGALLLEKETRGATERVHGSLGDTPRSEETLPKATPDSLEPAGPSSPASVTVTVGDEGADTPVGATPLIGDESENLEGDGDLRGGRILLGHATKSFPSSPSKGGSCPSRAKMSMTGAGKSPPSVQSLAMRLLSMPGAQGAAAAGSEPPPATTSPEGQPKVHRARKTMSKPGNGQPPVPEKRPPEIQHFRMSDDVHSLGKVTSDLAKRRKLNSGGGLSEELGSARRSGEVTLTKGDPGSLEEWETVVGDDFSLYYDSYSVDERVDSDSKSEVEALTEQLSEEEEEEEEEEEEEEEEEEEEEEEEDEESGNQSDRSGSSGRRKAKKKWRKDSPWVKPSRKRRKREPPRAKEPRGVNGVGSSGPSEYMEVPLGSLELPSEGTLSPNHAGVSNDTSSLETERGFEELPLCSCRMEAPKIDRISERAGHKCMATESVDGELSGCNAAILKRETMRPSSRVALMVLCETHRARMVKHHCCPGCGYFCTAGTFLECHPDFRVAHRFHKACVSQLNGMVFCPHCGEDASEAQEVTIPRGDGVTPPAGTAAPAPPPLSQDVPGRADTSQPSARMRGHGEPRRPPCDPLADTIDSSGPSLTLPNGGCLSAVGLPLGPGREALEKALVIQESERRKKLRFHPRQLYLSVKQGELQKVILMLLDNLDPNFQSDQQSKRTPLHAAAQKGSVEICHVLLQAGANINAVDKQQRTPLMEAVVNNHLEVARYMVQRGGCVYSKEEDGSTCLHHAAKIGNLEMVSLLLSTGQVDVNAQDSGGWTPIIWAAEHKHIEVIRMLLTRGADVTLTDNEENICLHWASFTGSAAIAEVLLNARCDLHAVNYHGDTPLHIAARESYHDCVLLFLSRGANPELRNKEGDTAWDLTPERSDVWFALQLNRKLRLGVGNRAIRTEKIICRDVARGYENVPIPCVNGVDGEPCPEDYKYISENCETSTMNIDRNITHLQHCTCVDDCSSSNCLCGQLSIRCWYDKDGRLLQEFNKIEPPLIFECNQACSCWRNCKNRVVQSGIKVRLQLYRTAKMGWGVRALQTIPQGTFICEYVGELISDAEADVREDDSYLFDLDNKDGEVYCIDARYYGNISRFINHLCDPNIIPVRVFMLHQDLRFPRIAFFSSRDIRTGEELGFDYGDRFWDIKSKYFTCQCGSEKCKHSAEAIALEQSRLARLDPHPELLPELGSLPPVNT

[8] = molecular target: T1, WD repeat-containing protein 5; experiment: Binding affinity to recombinant full-length human N-terminal His6-tagged WDR5 (1 to 334 residues) expressed in Escherichia coli BL21 (DE3) by surface plasmon resonance analysis
MV4-11 = experiment: Antiproliferative activity against human MV4-11 cells harboring MLL-AF4 fusion protein assessed as cell growth inhibition after 5 days by Celltiter-Glo luminescent assay; type: functional, cell-based; conditions: MV4-11, 120 h
K562 = experiment: Antiproliferative activity against human K562 cells assessed as cell growth inhibition after 5 days by Celltiter-Glo luminescent assay; type: functional, cell-based; conditions: K562, 120 h

Structure (SMILES): COc1ccc(S(=O)(=O)Nc2ccc(C(=O)O)cc2)cc1C(C)(C)C
- IC50 [3]: 48 µM

Structure (SMILES): Cc1c(Cl)ccc(S(=O)(=O)Nc2cccc(C(=O)O)c2)c1Cl
- IC50 [3]: 13 to 13.1 µM

Structure (SMILES): CCCCOc1ccc(S(=O)(=O)Nc2ccc(C(=O)O)cc2)cc1C
- IC50 [3]: 13 µM
- IC50 [4]: > 100 µM
- IC50 [5]: > 100 µM
- IC50 [6]: > 100 µM
- IC50 [7]: > 100 µM
- Kd [8]: 15.8 µM
- IC50 (MV4-11): 31.2 µM
- IC50 (K562): 72.1 µM

Structure (SMILES): CCCCOc1ccc(S(=O)(=O)Nc2ccccc2C(=O)O)cc1C
- IC50 [3]: 22 µM

Further lines, results first:

- IC50 [1]: 0.0045 µM
- Ki [2]: < 0.001 µM
Structure (SMILES): CCC(CC)(NC(=O)C(C)C)C(=O)N[C@@H](CCCNC(=N)N)C(=O)NC1(C(=O)NC(c2ccc(Cl)cc2)c2ccc(Cl)cc2)CCCC1

- IC50 [3]: 30 µM
Structure (SMILES): CCCCOc1ccc(S(=O)(=O)Nc2cccc(C(=O)O)c2)cc1C

- IC50 [3]: 22 µM
Structure (SMILES): O=C(O)c1cc(NS(=O)(=O)c2ccc(Cl)cc2)cc(C(=O)O)c1
